According to ChEMBL document CHEMBL2010733, “Amphilectane diterpenes from Salvia sclarea: biosynthetic considerations” (J Nat Prod, 2012):
Calls of active or inactive are those of the source. The calls are words filed in the database; no cut-off is given here.

Test system: Radical scavenging activity
Assay: Antioxidant activity assessed as DPPH radical scavenging activity
Format: functional

Row | Structure (SMILES) | Activity
1 | CC(C)=C[C@H]1C=C(C)[C@@H]2CC[C@H](C)[C@@]23CCC(C)=C[C@@H]13 (relative stereo) | inactive
2 | CC(C)=C[C@H]1C=C(C)[C@H]2CC[C@H](C)[C@@H]3CC=C(C)[C@@H]1[C@@H]32 (relative stereo) | inactive
